Holding throughout (format): cell-based
The target of assay [1] is T1, human Nav1.7 (hNav1.7) (Homo sapiens, UniProt Q15858).
T1 construct: expressed in transfected cells
Put plainly: hNav1.7 slow inactivation block, manual patchclamp. The following applies: HEK 293F cells stably expressing hNav1.7, slow inactivation induced in approximately 50% of channels. From the text:
(§1) The generation of HEK 293F cell lines stably expressing human Nav1.7 (h Nav1.7), human Nav1.5 (hNav1.5) and rat Nav1.2 (r Nav1.2) was achieved by subcloning SCN9A, SCN5A, and SCN2A genes into inducible expression vectors followed by transfection into target cells using standard techniques. In the case of h Nav1.7, an expression vector encoding the human Navβ1 auxiliary subunit gene, SCN1B, was co-transfected with the expression vector bearing the SCN9A gene. Clones were selected using appropriate selection agents (0.3 mg/mL Zeocin and 0.8 mg/mL Geneticin) and maintained in Dulbecco's Modified Eagle medium, 10% fetal bovine serum, 1% non-essential amino acids to ˜80% confluence at 37° C. in a humidified incubator with 95% atmosphere and 5% CO2.
(§2) On the day of each experiment, cells that were grown to 80% confluence in a T75 flask were harvested for use on PatchXpress (Molecular Devices, CA, USA). Following a recovery period at 37° C. in a humidified incubator with 95% atmosphere and 5% CO2 in Dulbecco's Modified Eagle Medium, the media was replaced with an external recording solution containing (in mM): 90 TEACl, 50 NaCl, 1.8 CaCl2, 1 MgCl2, 10 HEPES, 10 glucose, adjusted to pH 7.4 with TEAOH and 300 mOsm with sucrose. The internal recording solution contained (in mM): 129 CsF, 2 MgCl2, 11 EGTA, 10 HEPES, 6 NaCl, 3 Na2ATP adjusted to pH 7.2 with CsOH and 280 mOsm with sucrose. The automated liquid handling facility of PatchXpress dispensed cells and added compound. Modulation of Nav1.7 channels by compounds was assessed by promoting the channels into the inactivated state using a conditioning voltage pulse of variable amplitude, followed by a brief hyperpolarizing pulse with a subsequent depolarized voltage step to measure the current amplitude in the presence and absence of compound.
(§3) In some cases, the potency of compounds was measured using either the Patchliner automated patch clamp platform (Nanion) or manual patch clamp techniques. Both approaches allowed the compounds to be characterized based upon the ability of a compound to modulate use- and/or state-dependence across human Nav1.7 (hNav1.7), human Nav1.5 (hNav1.5) and rat Nav1.2 (rNav1.2). The potency data is tabulated in Table 2 and is represented by six data fields. Three of the six fields represent potency data measured with the Patchliner automated platform under varying use- and state-dependent electrophysiology protocols similar to the PatchXpress protocols detailed above. For example, the second data column describes the potency of compounds in their ability to block 50% of Nav1.7 channels when the channel is repetitively activated by depolarizing voltage potentials to induce slow inactivation in approximately 50% of channels (Table 2: h Nav1.7: IC50 Slow Inactivation Block, Automated Patchclamp). The next three data fields describe the data generated from manual patchclamp electrophysiology measurements using similar methods to those employed for automated patchclamp studies.
On the technique in general: Patch clamp records ionic current or voltage across a cell membrane.

Assay [2] has as its target T2, rat Nav1.2 (rNav1.2) (Rattus norvegicus, UniProt P04775).
T2 construct: expressed in transfected cells
The assay can be described thus: rNav1.2 slow inactivation block, manual patchclamp. The following applies: HEK 293F cells stably expressing rNav1.2.
Excerpt: as §1, §2, §3

The target of assay [3] is T1, human Nav1.7 (hNav1.7). Put plainly: hNav1.7 slow inactivation block, automated patchclamp. Particulars: HEK 293F cells stably expressing hNav1.7, slow inactivation induced in approximately 50% of channels.
Excerpt: as §1, §2, §3

Assay [4] addresses T2, rat Nav1.2 (rNav1.2). The assay can be described thus: rNav1.2 slow inactivation block, automated patchclamp. The following applies: HEK 293F cells stably expressing rNav1.2.
Excerpt: as §1, §2, §3

22 molecules from patent publication US11236078B2, “Heterocyclic inhibitors of the sodium channel” (priority 2014, dated 2022) can be followed below.

T2 sequence (P04775 whole entry): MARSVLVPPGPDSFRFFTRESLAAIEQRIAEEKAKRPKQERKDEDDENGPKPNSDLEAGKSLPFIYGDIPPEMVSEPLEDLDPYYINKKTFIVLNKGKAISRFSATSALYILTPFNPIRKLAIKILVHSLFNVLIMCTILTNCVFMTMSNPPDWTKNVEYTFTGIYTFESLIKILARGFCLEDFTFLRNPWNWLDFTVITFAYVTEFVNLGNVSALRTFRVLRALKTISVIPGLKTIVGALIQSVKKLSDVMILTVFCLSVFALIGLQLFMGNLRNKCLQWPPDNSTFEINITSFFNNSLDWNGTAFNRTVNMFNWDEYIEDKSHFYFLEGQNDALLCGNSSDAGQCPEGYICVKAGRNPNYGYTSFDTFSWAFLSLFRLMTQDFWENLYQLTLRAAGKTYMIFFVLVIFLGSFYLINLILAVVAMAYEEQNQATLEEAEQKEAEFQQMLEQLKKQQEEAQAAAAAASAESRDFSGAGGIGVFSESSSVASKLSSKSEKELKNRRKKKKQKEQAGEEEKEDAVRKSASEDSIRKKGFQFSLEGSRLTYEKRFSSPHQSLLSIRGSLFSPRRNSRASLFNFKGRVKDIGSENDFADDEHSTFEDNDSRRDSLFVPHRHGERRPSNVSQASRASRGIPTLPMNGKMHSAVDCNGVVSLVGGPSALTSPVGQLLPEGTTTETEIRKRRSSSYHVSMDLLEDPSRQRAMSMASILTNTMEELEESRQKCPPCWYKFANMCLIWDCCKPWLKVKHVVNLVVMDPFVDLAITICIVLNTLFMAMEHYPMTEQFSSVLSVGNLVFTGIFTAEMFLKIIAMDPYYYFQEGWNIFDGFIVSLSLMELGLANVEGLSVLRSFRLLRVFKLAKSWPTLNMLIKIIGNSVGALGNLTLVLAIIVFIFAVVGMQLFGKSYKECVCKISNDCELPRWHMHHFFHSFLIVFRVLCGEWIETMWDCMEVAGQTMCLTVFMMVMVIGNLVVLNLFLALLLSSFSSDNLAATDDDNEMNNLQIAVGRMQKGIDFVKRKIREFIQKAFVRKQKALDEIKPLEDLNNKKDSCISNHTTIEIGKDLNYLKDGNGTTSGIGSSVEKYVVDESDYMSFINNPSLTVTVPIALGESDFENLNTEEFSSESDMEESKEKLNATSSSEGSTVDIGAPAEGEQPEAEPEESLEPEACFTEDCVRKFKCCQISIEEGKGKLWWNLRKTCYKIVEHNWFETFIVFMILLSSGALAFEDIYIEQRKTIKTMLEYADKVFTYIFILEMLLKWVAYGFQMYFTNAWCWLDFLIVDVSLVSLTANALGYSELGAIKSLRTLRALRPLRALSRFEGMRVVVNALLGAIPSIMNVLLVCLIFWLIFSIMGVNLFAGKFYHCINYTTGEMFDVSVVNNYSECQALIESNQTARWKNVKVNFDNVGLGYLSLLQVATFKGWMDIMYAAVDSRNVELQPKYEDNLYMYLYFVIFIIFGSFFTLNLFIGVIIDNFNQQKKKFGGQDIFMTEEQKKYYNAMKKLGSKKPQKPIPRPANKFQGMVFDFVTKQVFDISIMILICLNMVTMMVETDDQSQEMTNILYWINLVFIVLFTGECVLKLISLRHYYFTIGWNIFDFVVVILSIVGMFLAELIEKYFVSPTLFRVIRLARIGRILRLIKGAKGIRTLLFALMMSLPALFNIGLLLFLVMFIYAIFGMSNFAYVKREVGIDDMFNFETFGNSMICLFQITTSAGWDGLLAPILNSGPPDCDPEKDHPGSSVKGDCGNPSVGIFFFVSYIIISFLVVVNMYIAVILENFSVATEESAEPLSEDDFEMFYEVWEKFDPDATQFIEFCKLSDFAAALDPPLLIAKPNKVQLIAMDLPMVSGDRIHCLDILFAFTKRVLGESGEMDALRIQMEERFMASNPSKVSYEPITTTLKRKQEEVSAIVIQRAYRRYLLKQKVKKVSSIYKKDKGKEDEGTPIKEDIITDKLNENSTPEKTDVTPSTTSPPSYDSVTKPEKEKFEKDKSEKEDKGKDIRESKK
T1 sequence (Q15858 whole entry): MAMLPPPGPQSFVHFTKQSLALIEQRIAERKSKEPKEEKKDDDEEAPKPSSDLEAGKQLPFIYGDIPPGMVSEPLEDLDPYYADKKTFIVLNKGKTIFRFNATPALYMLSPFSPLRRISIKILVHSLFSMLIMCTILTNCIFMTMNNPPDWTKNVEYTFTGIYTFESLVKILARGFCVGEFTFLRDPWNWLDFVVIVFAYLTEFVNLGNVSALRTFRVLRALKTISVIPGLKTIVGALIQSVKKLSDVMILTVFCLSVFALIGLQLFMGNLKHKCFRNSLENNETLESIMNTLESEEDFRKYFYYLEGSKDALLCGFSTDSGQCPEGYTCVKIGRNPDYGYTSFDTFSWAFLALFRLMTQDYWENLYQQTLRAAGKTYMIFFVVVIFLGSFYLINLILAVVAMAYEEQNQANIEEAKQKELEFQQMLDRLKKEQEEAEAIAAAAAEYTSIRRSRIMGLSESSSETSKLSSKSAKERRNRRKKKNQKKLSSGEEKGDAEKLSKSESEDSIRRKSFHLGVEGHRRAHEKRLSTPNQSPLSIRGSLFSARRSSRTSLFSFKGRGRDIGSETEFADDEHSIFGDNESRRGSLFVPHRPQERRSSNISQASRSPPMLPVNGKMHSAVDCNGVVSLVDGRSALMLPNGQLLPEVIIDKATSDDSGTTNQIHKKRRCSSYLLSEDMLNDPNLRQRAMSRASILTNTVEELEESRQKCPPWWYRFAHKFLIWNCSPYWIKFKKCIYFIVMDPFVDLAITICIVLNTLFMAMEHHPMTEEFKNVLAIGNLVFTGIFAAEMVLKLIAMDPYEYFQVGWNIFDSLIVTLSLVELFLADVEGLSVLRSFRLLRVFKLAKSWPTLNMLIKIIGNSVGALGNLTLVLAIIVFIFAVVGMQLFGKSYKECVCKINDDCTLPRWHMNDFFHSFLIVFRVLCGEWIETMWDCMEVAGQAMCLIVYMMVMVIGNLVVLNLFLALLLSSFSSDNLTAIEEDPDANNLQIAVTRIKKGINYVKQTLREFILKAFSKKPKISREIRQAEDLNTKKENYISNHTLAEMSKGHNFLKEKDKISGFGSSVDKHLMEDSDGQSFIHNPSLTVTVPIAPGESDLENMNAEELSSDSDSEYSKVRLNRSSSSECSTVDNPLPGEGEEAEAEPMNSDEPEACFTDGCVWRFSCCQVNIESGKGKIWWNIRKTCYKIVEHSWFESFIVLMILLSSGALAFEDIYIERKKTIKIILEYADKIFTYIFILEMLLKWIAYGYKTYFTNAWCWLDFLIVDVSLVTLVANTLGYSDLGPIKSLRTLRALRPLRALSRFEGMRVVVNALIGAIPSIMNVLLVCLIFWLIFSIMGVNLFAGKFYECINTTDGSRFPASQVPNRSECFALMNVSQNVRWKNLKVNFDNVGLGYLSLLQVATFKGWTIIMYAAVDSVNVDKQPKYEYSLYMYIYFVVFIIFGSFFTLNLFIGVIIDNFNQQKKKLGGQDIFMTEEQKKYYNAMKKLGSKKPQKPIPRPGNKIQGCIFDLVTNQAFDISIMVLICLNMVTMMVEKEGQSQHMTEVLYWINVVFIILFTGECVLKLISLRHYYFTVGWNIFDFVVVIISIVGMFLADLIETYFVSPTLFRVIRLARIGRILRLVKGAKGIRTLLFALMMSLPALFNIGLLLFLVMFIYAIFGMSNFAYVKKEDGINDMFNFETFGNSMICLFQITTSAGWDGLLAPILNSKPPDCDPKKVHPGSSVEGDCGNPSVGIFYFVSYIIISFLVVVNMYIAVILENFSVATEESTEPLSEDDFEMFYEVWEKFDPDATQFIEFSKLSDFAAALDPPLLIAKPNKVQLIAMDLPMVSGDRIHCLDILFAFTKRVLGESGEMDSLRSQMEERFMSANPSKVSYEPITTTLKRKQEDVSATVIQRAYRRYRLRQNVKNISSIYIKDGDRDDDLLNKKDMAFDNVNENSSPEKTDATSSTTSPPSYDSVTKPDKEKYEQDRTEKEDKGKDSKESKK
T1 sequence (Q07699 19-218 partner): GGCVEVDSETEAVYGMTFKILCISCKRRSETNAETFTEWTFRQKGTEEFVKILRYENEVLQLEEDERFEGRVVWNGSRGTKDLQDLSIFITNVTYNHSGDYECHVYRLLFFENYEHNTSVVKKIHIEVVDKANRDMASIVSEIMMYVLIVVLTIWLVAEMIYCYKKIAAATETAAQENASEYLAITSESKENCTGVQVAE

On to `O=C(NCc1cc(F)c(Oc2ccccc2)cc1F)[C@@H]1CCCN1` [Compound 3, (2S)-N-[(2,5-difluoro-4-phenoxyphenyl)methyl]pyrrolidine-2-carboxamide], for which the IC50 (usually the concentration that inhibits the measured activity by half) came to 1340 nM against human Nav1.7 (hNav1.7) [1], 1890 nM against rat Nav1.2 (rNav1.2) [2] and 5780 nM at human Nav1.7 (hNav1.7) [3].
On to `O=S(=O)(Nc1ncns1)c1ccc(Oc2cc(C(F)(F)F)cc(C(F)(F)F)c2)cc1` [Compound 6, 4-[3,5-bis(trifluoromethyl)phenoxy]-N-(1,2,4-thiadiazol-5-yl)benzene-1-sulfonamide], for which the IC50 against human Nav1.7 (hNav1.7) [1] was ~39000 nM; against rat Nav1.2 (rNav1.2) [2], > 10000 nM.
For the molecule `O=S(=O)(Nc1nncs1)c1ccc(Oc2cc(C(F)(F)F)cc(C(F)(F)F)c2)cc1` [Compound 7, 4-[3,5-bis(trifluoromethyl)phenoxy]-N-(1,3,4-thiadiazol-2-yl)benzene-1-sulfonamide], on human Nav1.7 (hNav1.7) [3], the IC50 was > 32000 nM.
Same read-out and setting: the same measure for `O=S(=O)(Nc1nncs1)c1cc(F)c(Oc2cc(C(F)(F)F)cc(C(F)(F)F)c2)cc1F` [Compound 8, 4-[3,5-bis(trifluoromethyl)phenoxy]-2,5-difluoro-N-(1,3,4-thiadiazol-2-yl)benzene-1-sulfonamide]: > 32000 nM; for `O=S(=O)(Nc1nccs1)c1ccc(Oc2cc(C(F)(F)F)cc(C(F)(F)F)c2)cc1` [Compound 9, 4-[3,5-bis(trifluoromethyl)phenoxy]-N-(1,3-thiazol-2-yl)benzene-1-sulfonamide]: ~29500 nM.
On to `N#Cc1cc(S(=O)(=O)Nc2nncs2)ccc1Oc1cc(C(F)(F)F)cc(C(F)(F)F)c1` [Compound 10, 4-[3,5-bis(trifluoromethyl)phenoxy]-3-cyano-N-(1,3,4-thiadiazol-2-yl)benzene-1-sulfonamide], for which the values for the IC50 against human Nav1.7 (hNav1.7) [1], against rat Nav1.2 (rNav1.2) [2] and against human Nav1.7 (hNav1.7) [3] were > 10000 nM, > 10000 nM and > 32000 nM, respectively.
Regarding `O=S(=O)(Nc1ncns1)c1ccc(Oc2cc(C(F)(F)F)cc(C(F)(F)F)c2)c(F)c1` [Compound 11, 4-[3,5-bis(trifluoromethyl)phenoxy]-3-fluoro-N-(1,2,4-thiadiazol-5-yl)benzene-1-sulfonamide], the IC50 was > 3200 nM against human Nav1.7 (hNav1.7) [1], > 10000 nM against rat Nav1.2 (rNav1.2) [2] and > 32000 nM at human Nav1.7 (hNav1.7) [3].
Taken in the same sequence, the figures for `O=C(Nc1ncns1)c1cc(F)c(Oc2cc(C(F)(F)F)cc(C(F)(F)F)c2)cc1F` [Compound 12, 4-[3,5-bis(trifluoromethyl)phenoxy]-2,5-difluoro-N-(1,2,4-thiadiazol-5-yl)benzamide] were ~5590 nM, > 3200 nM and > 32000 nM.
For the molecule `CS(=O)(=O)NC(=O)c1cc(F)c(Oc2cc(C(F)(F)F)cc(C(F)(F)F)c2)cc1F` [Compound 13, 4-[3,5-bis(trifluoromethyl)phenoxy]-2,5-difluoro-N-methanesulfonylbenzamide], the IC50 on human Nav1.7 (hNav1.7) [1] was ~10300 nM; on rat Nav1.2 (rNav1.2) [2], > 10000 nM; against human Nav1.7 (hNav1.7) [3] it was 19200 nM.
Consider `N#Cc1cc(S(=O)(=O)Nc2ncns2)ccc1Oc1cc(C(F)(F)F)cc(C(F)(F)F)c1` [Compound 14, 4-[3,5-bis(trifluoromethyl)phenoxy]-3-cyano-N-(1,2,4-thiadiazol-5-yl)benzene-1-sulfonamide], for which the IC50 at human Nav1.7 (hNav1.7) [1] is 4940 nM; against rat Nav1.2 (rNav1.2) [4], > 32000 nM; against rat Nav1.2 (rNav1.2) [2] it was > 10000 nM; against human Nav1.7 (hNav1.7) [3], ~49000 nM.
`O=C(Nc1nncs1)c1cc(F)c(Oc2cc(C(F)(F)F)cc(C(F)(F)F)c2)cc1F` [Compound 15, 4-[3,5-bis(trifluoromethyl)phenoxy]-2,5-difluoro-N-(1,3,4-thiadiazol-2-yl)benzamide]: the IC50 against human Nav1.7 (hNav1.7) [1] is 4960 nM; against rat Nav1.2 (rNav1.2) [2], 4320 nM; against human Nav1.7 (hNav1.7) [3], > 32000 nM.
In the case of `O=S(=O)(Nc1ncns1)c1ccc(Oc2cc(C(F)(F)F)cc(C(F)(F)F)c2)c(Cl)c1` [Compound 16, 4-[3,5-bis(trifluoromethyl)phenoxy]-3-chloro-N-(1,2,4-thiadiazol-5-yl)benzene-1-sulfonamide], the IC50 against rat Nav1.2 (rNav1.2) [4] is > 32000 nM; against rat Nav1.2 (rNav1.2) [2] it was > 10000 nM; at human Nav1.7 (hNav1.7) [3] it was 21100 nM.
`O=S(=O)(Nc1ccncn1)c1cc(F)c(Oc2cc(C(F)(F)F)cc(C(F)(F)F)c2)cc1F` [Compound 18, 4-[3,5-bis(trifluoromethyl)phenoxy]-2,5-difluoro-N-(pyrimidin-4-yl)benzene-1-sulfonamide]: the IC50 on human Nav1.7 (hNav1.7) [1] was ~9760 nM; at rat Nav1.2 (rNav1.2) [4], > 32000 nM; against human Nav1.7 (hNav1.7) [3] it was > 32000 nM.
Consider `O=C(Cc1cc(F)c(Oc2cc(C(F)(F)F)cc(C(F)(F)F)c2)cc1F)Nc1ncns1` [Compound 22, 2-{4-[3,5-bis(trifluoromethyl)phenoxy]-2,5-difluorophenyl}-N-(1,2,4-thiadiazol-5-yl)acetamide], for which the IC50 on human Nav1.7 (hNav1.7) [1] was > 3200 nM; on rat Nav1.2 (rNav1.2) [4], > 32000 nM; against human Nav1.7 (hNav1.7) [3] it was > 32000 nM.
With `CNC(=O)c1cc(Oc2cc(F)c(S(=O)(=O)Nc3ncns3)cc2F)cc(C(F)(F)F)c1` [Compound 25, 3-{2,5-difluoro-4-[(1,2,4-thiadiazol-5-yl)sulfamoyl]phenoxy}-N-methyl-5-(trifluoromethyl)benzamide], the IC50 at human Nav1.7 (hNav1.7) [1] is ~19200 nM; against rat Nav1.2 (rNav1.2) [4], > 32000 nM; against human Nav1.7 (hNav1.7) [3], ~41800 nM.
`CCNC(=O)c1cc(Oc2cc(F)c(S(=O)(=O)Nc3ncns3)cc2F)cc(C(F)(F)F)c1` [Compound 35, 3-{2,5-difluoro-4-[(1,2,4-thiadiazol-5-yl)sulfamoyl]phenoxy}-N-ethyl-5 (trifluoromethyl)benzamide]: the results for the IC50 at human Nav1.7 (hNav1.7) [1] and at human Nav1.7 (hNav1.7) [3] were ~16200 nM and > 32000 nM, respectively.
Taken in the same sequence, the figures for `O=C(c1cc(Oc2cc(F)c(S(=O)(=O)Nc3ncns3)cc2F)cc(C(F)(F)F)c1)N1CCCC1` [Compound 39, 2,5-difluoro-4-{3-[(pyrrolidin-1-yl)carbonyl]-5-(trifluoromethyl)phenoxy}-N-(1,2,4-thiadiazol-5-yl)benzene-1-sulfonamide] were ~6930 nM and ~21700 nM.
With `COCc1nsc(NS(=O)(=O)c2cc(F)c(Oc3cc(OC)cc(C(F)(F)F)c3)cc2F)n1` [Compound 44, 2,5-difluoro-4-[3-methoxy-5-(trifluoromethyl)phenoxy]-N-[3-(methoxymethyl)-1,2,4-thiadiazol-5-yl]benzene-1-sulfonamide], the IC50 against human Nav1.7 (hNav1.7) [1] is > 10000 nM; against human Nav1.7 (hNav1.7) [3] it was > 32000 nM.
In the case of `O=C(NCc1cc(-c2cc(C(F)(F)F)cc(C(F)(F)F)c2)cc(C(F)(F)F)c1)[C@@H]1C[C@H](F)CN1` [Compound 54, (2S,4S)-4-fluoro-N-((3′,5,5′-tris(trifluoromethyl)-[1,1′-biphenyl]-3-yl)methyl)pyrrolidine-2-carboxamide], the IC50 against human Nav1.7 (hNav1.7) [1] was found to be 741 nM; at rat Nav1.2 (rNav1.2) [2] it was 744 nM; against human Nav1.7 (hNav1.7) [3], 5130 nM.
With `O=C(NCc1cccc(-c2cc(C(F)(F)F)cc(C(F)(F)F)c2)c1)C1CC[C@H](O)C1` (stereo partly drawn) [Example 63, (3S)-N-({3-[3,5-bis(trifluoromethyl)phenyl]phenyl}methyl)-3-hydroxycyclopentane-1-carboxamide], the IC50 against human Nav1.7 (hNav1.7) [1] amounted to 2680 nM; on rat Nav1.2 (rNav1.2) [2], 2370 nM.
As to `O=C(NCc1cccc(-c2cc(C(F)(F)F)cc(C(F)(F)F)c2)c1)C1CC[C@@H](O)C1` (stereo partly drawn) [Example 64, (3R)-N-({3-[3,5-bis(trifluoromethyl)phenyl]phenyl}methyl)-3-hydroxycyclopentane-1-carboxamide], the values for the IC50 against human Nav1.7 (hNav1.7) [1] and at rat Nav1.2 (rNav1.2) [2] were 1570 nM and 961 nM, respectively.
For `O=C(NCc1cccc(-c2cc(C(F)(F)F)cc(C(F)(F)F)c2)c1)C1CC[C@@H](F)C1` (stereo partly drawn) [Example 65, (3R)-N-({3-[3,5-bis(trifluoromethyl)phenyl]phenyl}methyl)-3-fluorocyclopentane-1-carboxamide], in that order: 477 nM and 351 nM.
